# Experimental data as given in patent US5747482A, “Methods and compositions to inhibit keratinocyte proliferation” (priority 1996, dated 1998).
# Like-named read-outs stand apart in the source and are kept apart here.
# Assays:
# keratinocyte cells [1] = format: cell-based, human; details: keratinocytes, 48 h, 500 µM
# Description: (§1) Adult human keratinocytes from pooled donor skin were obtained from commercial sources (Cascade Biologics, Portland, Oreg., U.S.A.) and placed in 150 cm^2 bottom area culture flasks using culture medium 154 supplemented with HKGS (about 1%). At 80% confluency, cells were harvested with trypsin and cryopreserved until required.
# (§2) Culture was renewed for a further 24 hours. At this time, media were removed and discarded, and the cells lysed with 200 μL/well of the solution provided in the Cell Death Detection Kit ELISA Plus (Boehringer Mannheim Biochemicals, Indianapolis, Ind., U.S.A., catalogue number 1774425). Aliquots of the lysate (20 μL) from each of 2 or 3 wells were assayed for nucleosomal enrichment following the kit instructions.
# The evaluation of apoptosis of keratinocytes was conducted to determine the relative affect on apoptosis achieved by gallium maltol, gallium nitrate and maltol. Specifically, keratinocyte cells were seeded in 12 well plates seed using culture medium 154. Cultures were continued for 4 days and the medium was changed to medium 154 with 1.2 mM Ca^+2 either without supplement or with one of the following supplements:
# 1. gallium maltol at a final concentration of 5×10^-4 M;
# 2. gallium nitrate at a final concentration of 5×10^-4 M;
# 3. maltol at a concentration of 15×10^-4 M; and
# 4. CAM at a concentration of 1×10^-5 M.
# Three (3) wells were used in each group. The final amount of medium was 300 μL in each well. Culture was continued for 2 days. Bars represent absorbance at 405 nm minus the absorbance at 492 nm.
# Keratinocytes = experiment: Effect on cell differentiation and cell number, gallium maltol added 24 hours after seeding, Example 4; format: cell-based, human; details: 7 days, high calcium
# Description: as §1
# Culture flasks (75 cm^2 bottom area) were seeded with keratinocytes at about 2,500 cells per cm^2 as before. After 24 hours, the medium in three (3) flasks were changed to media (154) with the calcium content increased from the normal 0.2 mM to 1.0 mM ("high calcium") plus gallium maltol (GaM) at the following concentrations: 1×10^-5 M, 5×10^-5 M, and 1×10^-4 M. The culture was continued for 7 days when cells were about 75% confluent in the controls (no GaM). Media supplemented as above were changed every 2 days. Finally, media were aspirated and cells rinsed with PBS before exposure to trypsin (0.025%)/EDTA (0.01%). When dislodged, they were collected in centrifuge tubes and the flasks rinsed with PBS:trypsin neutralizing solution (Clonetics, San Diego, Calif., U.S.A.; 1:1 v/v) and added to the cell suspension. The total volume of suspensions was approximately 8 to 10 mL. Aliquots of these suspensions were counted on the hemocytometer in terms of:
# (1) small, light or dark keratinocytes, referred to as "proliferating";
# (2) larger, squamous keratinocytes, with intracellular structural elements; and
# (3) clear squamous cells without structural elements.
# After counting, each suspension was centrifuged, the supernatant discarded, and the cell pellet resuspended in 0.5 to 1.0 mL of 1% SDS:2.5 mM DTT. After 15 minutes at 37° C., aliquots of these suspensions were counted for insoluble cornified envelops. The volumes were noted.
# [2] = test system: Adult human keratinocytes; experiment: Keratinocyte growth inhibition (crystal violet staining; confirmatory hexosaminidase activity), Example 2; format: cell-based
# From the text: Adult human keratinocytes from pooled donor skin were obtained from commercial sources (Cascade Biologics, Portland, Oreg., U.S.A.) and placed in 150 cm^2 bottom area culture flasks using culture medium 154 supplemented with HKGS (about 1%). At 80% confluency, cells were harvested with trypsin and cryopreserved until required. At the start of the experiments, the required number of vials of keratinocytes was thawed, and the keratinocytes were placed in culture in 24 well plates at about 2,500 cells/cm^2 using the same culture medium as described above. After 24 hours (to allow attachment), the medium was changed to fresh 154 supplemented with HKGS (about 1%) and gallium maltol. Specifically, the fresh medium was prepared by addition of a sufficient amount of a stock solution to provide for six different compositions having a final gallium concentration of 10^-4 M, 10^-5 M, 10^-6 M, 10^-8 M, 10^-10 M, and 10^-12 M. The stock solution was prepared by adding 22.25 mg of gallium maltol to 50 mL of 154 medium and then passing the solution through a 0.2 μm filter and storing at 4° C. Media were replaced every 2 or 3 days. […]
# keratinocyte cells [3] = format: cell-based, human; details: below 5×10^-4 M, 24 hours treatment
# From the text: as §1
# The induction of apoptosis is a critical feature in the programmed cell death as it relates to disease conditions such as cancer, psoriasis, etc. where the uncontrolled proliferation of "immortal" cells such as keratinocytes is a causative feature of the disease. This example compares the ability of gallium maltol to induce apoptosis as compared to negative control (no gallium maltol), and positive control (CAM--an agent known to strongly induce apoptosis). The ability for gallium maltol to effect apoptosis was also measured by the inhibitory effect of ATA.
# Specifically, keratinocyte cells were grown using medium 154 in 24 well plates seed with 2,500 cells/cm^2 as described above. Cultures were continued for 3 or 6 days when the cells had achieved about 20 or 60% confluence respectively. On these 2 occasions, media were aspirated from groups of 3 or 4 wells and replaced with high Ca^+2 medium either without supplement or with one of the following supplements:
# 1. Gallium maltol at a final concentration of one of the following: (a) 5×10^-4 M, (b) 1×10^-4 M, (c) 5×10^-5 M, (d) 1×10^-5 M, and (e) 1×10^-6 M;
# 4. As in (3) plus CAM at 1×10^-5 or 1×10^-6 M; and
# 5. As in (3) plus gallium maltol at 1×10^-4 or 2.5×10^-4 M;
# as §2
smiles,measurement,setting,value
"Cc1occc(=O)c1[O-].Cc1occc(=O)c1[O-].Cc1occc(=O)c1[O-].[Ga+3] [gallium maltol, neutral 3:1 gallium complex of maltol]",increase in apoptosis compared to control,keratinocyte cells [1],~19 fold
same,anti-proliferative effect,Keratinocytes; 1×10^-4 M,so great that the number of cells was too small for accurate counting
same,"number of proliferative, squamous and cornified cells vs control",Keratinocytes; 1×10^-5 M,"for all intents and purposes, unchanged compared to control"
same,increase in the number of cornified envelopes vs control,Keratinocytes; 5×10^-5 M,tenfold
same,decrease in total number of cells,"Keratinocytes; 5×10^-5 M, vs control, 50 µM",about 90%
same,number of squamous cells vs control,"Keratinocytes; 5×10^-5 M, FIG. 4",increase in the number of squamous cells
same,proportion of proliferative cells vs control,"Keratinocytes; 5×10^-5 M, FIG. 4",moderate decrease in the proportion of proliferative cells
same,"CELL NUMBER, cornified","Keratinocytes; 10^-5 M, control 0.26 ± 0.01%",0.39 ± 0.17%
same,"CELL NUMBER, clear squamous","Keratinocytes; 10^-5 M, control 1.8 ± 0.9%",2.9 ± 0.15%
same,"CELL NUMBER, squamous","Keratinocytes; 10^-5 M, control 12.7 ± 2.7%",13.5 ± 0.65%
same,"CELL NUMBER, proliferative","Keratinocytes; 10^-5 M, control 85.3 ± 2.7%",83.6 ± 0.64%
same,concentration at which inhibition of keratinocyte proliferation is achieved,Keratinocytes,greater than 1×10^-5 M
same,concentration enhancing cell differentiation of keratinocytes,Keratinocytes,greater than 1×10^-5 M
same,keratinocyte growth reduced as compared to control,"[2]; 10^-4 M, FIG. 1 (crystal violet) and FIG. 2 (hexosaminidase), 100 µM",60 to 90%
same,effect on keratinocyte growth at lower concentrations,"[2]; concentrations below 10^-4 M, FIG. 2 (hexosaminidase)","may, in fact, slightly promote keratinocyte growth"
same,increase in apoptosis at lower concentrations,"keratinocyte cells [3]; cultured 3 days prior, FIG. 5",failed to provide such a significant increase in apoptosis
same,increase in apoptosis at lower concentrations,"keratinocyte cells [3]; cultured 6 days prior, FIG. 6",smaller increases in apoptosis at lower concentrations
